Values of other authors in patent publication US20030027808A1, “Farnesyl protein transferase inhibitor combinations with platinum compounds” (priority 2000, published 2003).

Tested on: colon cancer (LoVo)
Conditions: in combination with cisplatin; in vitro LoVo colon cancer model; reported at 90th AACR Annual Meeting, Apr. 10-14, 1999

In the case of `Cn1cncc1C(N)(c1ccc(Cl)cc1)c1ccc2c(c1)c(-c1cccc(Cl)c1)cc(=O)n2C` (single isomer, unassigned; (+)) [(+)-6-[amino(4-chlorophenyl)(1-methyl-1H-imidazol-5-yl)methyl]-4-(3-chlorophenyl)-1-methyl-2(1H)-quinolinone], the “anti-tumor effect of the combination” value is given as “additive anti-tumor effect”.
